The source of these data is paper PMC10274775 (bioRxiv, 2023).

Assay [1] addresses T1, uniporter with MICU1-MICU1 homodimer (MICU2-KO HEK cells) (Homo sapiens, UniProt Q8NE86+Q9BPX6).
T1 sequence (Q8NE86 51-351): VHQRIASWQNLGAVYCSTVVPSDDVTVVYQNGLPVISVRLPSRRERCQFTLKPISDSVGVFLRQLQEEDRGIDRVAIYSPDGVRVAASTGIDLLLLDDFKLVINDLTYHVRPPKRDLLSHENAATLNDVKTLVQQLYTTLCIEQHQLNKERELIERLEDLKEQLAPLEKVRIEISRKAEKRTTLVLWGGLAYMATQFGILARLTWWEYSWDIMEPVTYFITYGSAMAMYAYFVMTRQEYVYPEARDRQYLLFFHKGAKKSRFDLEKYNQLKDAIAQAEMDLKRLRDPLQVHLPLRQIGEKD
T1 sequence (Q9BPX6 34-476): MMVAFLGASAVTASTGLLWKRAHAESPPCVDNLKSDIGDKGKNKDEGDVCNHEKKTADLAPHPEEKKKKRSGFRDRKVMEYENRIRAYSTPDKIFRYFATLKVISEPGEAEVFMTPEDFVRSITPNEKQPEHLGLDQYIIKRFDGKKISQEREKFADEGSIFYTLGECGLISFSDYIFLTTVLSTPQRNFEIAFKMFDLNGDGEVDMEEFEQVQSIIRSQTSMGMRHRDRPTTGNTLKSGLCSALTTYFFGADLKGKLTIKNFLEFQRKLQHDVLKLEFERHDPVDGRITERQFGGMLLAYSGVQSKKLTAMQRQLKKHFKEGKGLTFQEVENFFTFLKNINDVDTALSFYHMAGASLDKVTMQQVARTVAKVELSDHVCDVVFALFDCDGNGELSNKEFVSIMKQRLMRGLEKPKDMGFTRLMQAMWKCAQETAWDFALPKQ
T1 sequence (Q9H4I9 53-107 partner): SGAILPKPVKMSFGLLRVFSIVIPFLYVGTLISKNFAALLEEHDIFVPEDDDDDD
Briefly: Fluo-4 extramitochondrial Ca2+ in digitonin-permeabilized MICU2-KO HEK cells. It is filed as biochemical.

Assay [2] concerns the target T2, MCU-MICU1 complex (MICU1-1 dimer) (Homo sapiens, UniProt Q8NE86+Q9BPX6).
T2 sequence (Q8NE86 51-351): T1 sequence (Q8NE86 51-351)
T2 sequence (Q9BPX6 34-476): T1 sequence (Q9BPX6 34-476)
Briefly: co-immunoprecipitation from HEK lysate, western blot. It is filed as biochemical. The following applies: 1 mM spermine, 1 mM EGTA; disruption of the MCU-MICU1 interaction; pH 7.4, 4 mM DDM. In general terms: Immunoblotting shows a protein as a band on a membrane.

Compound `NCCCNCCCCNCCCN` [spermine] came in with an EC50 in assay [1] of 158 µM. For the same compound, in assay [2], the “co-immunoprecipitation from HEK lysate, western blot” value was “spermine fully breaks complex formation between MCU and the MICU1-1 dimer”.

A word on the EC50: it is the midpoint of the concentration-response curve. Read a low EC50 as a more potent agent.
